In US4471131A, “Novel silyl esters of N-phosphonomethylglycine” (Monsanto Company, priority 1983, dated 1984):

Columns and labels:
Test in all cases: post-emergence herbicidal activity, greenhouse
Assay type in all cases: in vivo
[1] = system: Barnyardgrass; details: formulated in anhydrous tetrahydrofuran
In short: (§1)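 After sowing in soil-filled pans and growing under greenhouse conditions, plants at two to three weeks were sprayed post-emergence with the test compound in a formulation containing approximately 0.4% emulsifier by weight. Observations of plant injury, relative to controls, followed at about two and four weeks.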

[2] = system: Canada Thistle; details: Table II, formulated in anhydrous tetrahydrofuran
In short: as §1

[3] = system: Cocklebur; details: formulated in anhydrous tetrahydrofuran
In short: as §1

[4] = system: Common Lambsquarters; details: formulated in anhydrous tetrahydrofuran
In short: as §1

[5] = system: Downy Brome; details: formulated in anhydrous tetrahydrofuran
In short: as §1

[6] = system: Hemp Sesbania; details: Table III, formulated in anhydrous tetrahydrofuran
In short: as §1

[7] = system: Johnsongrass; details: Table II, formulated in anhydrous tetrahydrofuran
In short: as §1

[8] = system: Large Crabgrass; details: Table III, formulated in anhydrous tetrahydrofuran
In short: as §1

[9] = system: Morningglory; details: Table II, formulated in anhydrous tetrahydrofuran
In short: as §1

CCCCOC(=O)CNCP(=O)(O)O[Si](C)(C)C(C)(C)C [Ex. 3, Glycine, N-((([(1,1-Dimethylethyl)Dimethylsilyl]oxy)Hydroxyphosphinyl)Methyl)-, Butyl Ester]
1 (25-49% inhibition): Plant Response Index (K) ([1]; Table III, 2 WAT, .28 kg/h) | Plant Response Index (K) ([1]; Table III, 4 WAT, .28 kg/h) | Plant Response Index (A) ([2]; 2 WAT, 5.6 kg/h) | Plant Response Index (A) ([2]; 2 WAT, 11.2 kg/h) | Plant Response Index (A) ([2]; 4 WAT, 5.6 kg/h) | Plant Response Index (B) ([3]; Table II, 2 WAT, 5.6 kg/h) | Plant Response Index (B) ([3]; Table II, 2 WAT, 11.2 kg/h) | Plant Response Index (B) ([3]; Table II, 4 WAT, 5.6 kg/h) | Plant Response Index (B) ([3]; Table III, 4 WAT, 1.1 kg/h) | Plant Response Index (B) ([3]; Table III, 4 WAT, .28 kg/h) | Plant Response Index (J) ([5]; Table II, 4 WAT, 5.6 kg/h) | Plant Response Index (J) ([5]; Table II, 4 WAT, 11.2 kg/h) | Plant Response Index (J) ([5]; Table III, 2 WAT, 1.1 kg/h) | Plant Response Index (J) ([5]; Table III, 2 WAT, 5.6 kg/h) | Plant Response Index (J) ([5]; Table III, 2 WAT, .28 kg/h) | Plant Response Index (J) ([5]; Table III, 4 WAT, 1.1 kg/h) | Plant Response Index (J) ([5]; Table III, 4 WAT, 5.6 kg/h) | Plant Response Index (R) ([6]; 2 WAT, 1.1 kg/h) | Plant Response Index (R) ([6]; 2 WAT, .28 kg/h) | Plant Response Index (R) ([6]; 4 WAT, 1.1 kg/h) | Plant Response Index (I) ([7]; 2 WAT, 11.2 kg/h) | Plant Response Index (I) ([7]; 4 WAT, 5.6 kg/h) | Plant Response Index (D) ([9]; 2 WAT, 5.6 kg/h) | Plant Response Index (D) ([9]; 2 WAT, 11.2 kg/h) | Plant Response Index (D) ([9]; 4 WAT, 5.6 kg/h)
2 (50-74% inhibition): Plant Response Index (K) ([1]; Table II, 2 WAT, 5.6 kg/h) | Plant Response Index (K) ([1]; Table II, 2 WAT, 11.2 kg/h) | Plant Response Index (K) ([1]; Table II, 4 WAT, 5.6 kg/h) | Plant Response Index (K) ([1]; Table III, 2 WAT, 1.1 kg/h) | Plant Response Index (K) ([1]; Table III, 2 WAT, 5.6 kg/h) | Plant Response Index (K) ([1]; Table III, 4 WAT, 1.1 kg/h) | Plant Response Index (A) ([2]; 4 WAT, 11.2 kg/h) | Plant Response Index (B) ([3]; Table II, 4 WAT, 11.2 kg/h) | Plant Response Index (B) ([3]; Table III, 2 WAT, 1.1 kg/h) | Plant Response Index (B) ([3]; Table III, 2 WAT, 5.6 kg/h) | Plant Response Index (B) ([3]; Table III, 2 WAT, .28 kg/h) | Plant Response Index (I) ([7]; 4 WAT, 11.2 kg/h) | Plant Response Index (D) ([9]; 4 WAT, 11.2 kg/h)
3 (75-99% inhibition): Plant Response Index (K) ([1]; Table II, 4 WAT, 11.2 kg/h) | Plant Response Index (K) ([1]; Table III, 4 WAT, 5.6 kg/h) | Plant Response Index (B) ([3]; Table III, 4 WAT, 5.6 kg/h) | Plant Response Index (E) ([4]; Table II, 2 WAT, 5.6 kg/h) | Plant Response Index (E) ([4]; Table II, 2 WAT, 11.2 kg/h) | Plant Response Index (E) ([4]; Table III, 2 WAT, 1.1 kg/h) | Plant Response Index (E) ([4]; Table III, 2 WAT, .28 kg/h) | Plant Response Index (E) ([4]; Table III, 4 WAT, 1.1 kg/h) | Plant Response Index (T) ([8]; 2 WAT, 1.1 kg/h) | Plant Response Index (T) ([8]; 2 WAT, .28 kg/h)
0 (0-24% inhibition): Plant Response Index (J) ([5]; Table II, 2 WAT, 5.6 kg/h) | Plant Response Index (J) ([5]; Table II, 2 WAT, 11.2 kg/h) | Plant Response Index (J) ([5]; Table III, 4 WAT, .28 kg/h) | Plant Response Index (R) ([6]; 4 WAT, .28 kg/h) | Plant Response Index (I) ([7]; 2 WAT, 5.6 kg/h)
4 (100% inhibition): Plant Response Index (E) ([4]; Table II, 4 WAT, 5.6 kg/h) | Plant Response Index (E) ([4]; Table II, 4 WAT, 11.2 kg/h) | Plant Response Index (E) ([4]; Table III, 2 WAT, 5.6 kg/h) | Plant Response Index (E) ([4]; Table III, 4 WAT, 5.6 kg/h) | Plant Response Index (E) ([4]; Table III, 4 WAT, .28 kg/h) | Plant Response Index (R) ([6]; 2 WAT, 5.6 kg/h) | Plant Response Index (R) ([6]; 4 WAT, 5.6 kg/h) | Plant Response Index (T) ([8]; 2 WAT, 5.6 kg/h) | Plant Response Index (T) ([8]; 4 WAT, 1.1 kg/h) | Plant Response Index (T) ([8]; 4 WAT, 5.6 kg/h) | Plant Response Index (T) ([8]; 4 WAT, .28 kg/h)
